Laboratory results taken from a melting point compilation (Tetko et al.; mined from patent text by program, amines drawn as free bases though some values may be those of a salt).

Row | melting point | SMILES
1 | 229 to 230 °C | CCN(CC)c1ccc2nc3c4ccccc4c(=Nc4cc(C)nc5ccccc45)cc-3oc2c1
2 | 109 to 112 °C | CCCCCc1c(-c2ccc3cc(OCC#N)ccc3c2)n(Cc2ccccc2)c2ccccc12
3 | 65 to 68 °C | c1ccc2c(c1)ccn2Cc1ccncc1
4 | 118 to 120 °C | CCOc1cc(C(C#N)N2C(=O)c3cccc(NC(C)=O)c3C2=O)ccc1OC (stereo not drawn)
5 | 190 to 191 °C | CC(N(O)C(N)=O)C1(OCc2nc3ccccc3s2)C=CC(c2ccccc2)=CC1 (stereo not drawn)
6 | 129 to 132 °C | COc1cc(C(C)N(O)C(N)=O)cc(OC)c1OC(C)c1ccccc1 (stereo not drawn)
7 | > 250 °C | COc1cccc(-c2cc(=O)c3ccccc3[nH]2)c1SCc1ccccc1
8 | 132 °C | N#CCCN(Cc1ccccc1)CC(O)CO (stereo not drawn)
9 | 61 to 63 °C | CCC[C@H](CO)Nc1nc(-c2ccc(Br)cc2)cs1
10 | 190 to 192 °C | C=CCN(CC)c1ccc2[nH]c3cnc(C(=O)OCC)cc3c2c1
11 | 63 to 65 °C | CCCCCCCCCCC1SCCCN1C(=S)Nc1cccc(Cl)c1 (stereo not drawn)
12 | 266 to 270 °C | N#CC(=Cc1cc(O)c(O)c(Br)c1)C(=O)Nc1cccc(Cl)c1
13 | 140 to 142 °C | CCCNC(=O)CC=Cc1ccc2c(c1)c(Cc1ccc(C(=O)OC)cc1OC)cn2CCC
14 | 212 to 215 °C | O=C1c2ccccc2C(=O)N1CCc1ccc(C=Cc2ccccc2)cc1
15 | 139 °C | CCCCOc1cc(-c2cc3ccccc3[nH]2)ccc1OCC
16 | 242 to 244 °C | Clc1cc(N2CCOCC2)ccc1Nc1ncc2c(Cl)cc(-c3ccccc3)n2n1
17 | 102 to 103 °C | CCC(=CC(CSc1nc2ccccc2s1)=NO)C(C)[N+](=O)[O-] (stereo not drawn)
18 | 178 to 179 °C | CC1NC(=O)NN=C1c1ccc(NCCCN)cc1 (stereo not drawn)
19 | 180 to 181 °C | O=C(OCC1OC(Oc2ccc([N+](=O)[O-])cc2)C(OC(=O)c2ccccc2)C(OC(=O)c2ccccc2)C1O)c1ccccc1 (stereo not drawn)
20 | 58 to 61 °C | CCOC(=O)c1c(Sc2ccccc2)cc(C(F)(F)F)nc1C(F)(F)F
21 | 269 to 270 °C | c1ccc(-c2cc(-c3csc(Nc4ccncc4)n3)on2)cc1
22 | 90 °C | CCN(CC(=O)O)c1ccc(C=O)cc1[N+](=O)[O-]
23 | 152 to 153 °C | N#Cc1ccc2c(c1)CCC=C2n1ccnc1
24 | 96 to 98 °C | CN(CCCCCCCNC(=NCCCOc1cccc(CN2CCCCC2)c1)NC#N)CCN(Cc1ccc(F)cc1)c1ccccn1
25 | 160 °C | CC(C)C(=O)CC1NC(=O)c2ccsc2-n2cccc21 (stereo not drawn)
26 | 202 to 203 °C | CNC(=O)c1ccccc1Nc1nc(Nc2ccc3c(c2)CCC(NCC(F)(F)F)CC3)ncc1Cl (stereo not drawn)

Row | melting point | SMILES
27 | 168 to 170 °C | CCOC(OCC)c1cc(NC(c2ccccc2)(c2ccccc2)c2ccccc2)c(F)c(C(C)(C)C)n1
28 | 205 to 206 °C | O=C(Nc1ccccc1)C1=C(N2CCOCC2)COC1=O
29 | 75 to 78 °C | CCCc1nc(-n2cccc2)c(C#N)[nH]1
30 | 123 to 125 °C | COc1cc2c(cc1OC)CN(CCCc1ccc(NC(=O)c3cc(OC)c4ccccc4n3)cc1)CC2
31 | 73 to 74 °C | O=C(OC1CCN(Cc2ccccc2)CC1)c1ccccc1I
32 | 158 °C | CCN(C(=O)CN(C(=O)CNC(=O)Nc1cccc(C)c1)c1ccccc1)c1ccccc1
33 | 65 to 85 °C | CC(CCc1cccc(F)c1)NCC(O)c1ccc(F)c(S(N)(=O)=O)c1 (stereo not drawn)
34 | 119 to 121 °C | NS(=O)(=O)c1cc(C(=O)O)cc([N+](=O)[O-])c1-c1ccccc1
35 | 315 to 318 °C | Cc1cccc(C)c1CNc1cc(C(=O)O)cc2c1nc(C)n2C
36 | 152 to 153 °C | COc1ccc(-c2cc(-c3ccccc3F)c(C#N)c(C)n2)cc1
37 | 150 °C | OCc1cc2ccccc2c(-c2ccccc2)c1CO
38 | 217 to 218 °C | O=C(CCl)Nc1ccc2c(c1NC(=O)COc1ccccc1)C(=O)c1ccccc1C2=O
39 | 261 to 263 °C | CCOC(=O)Nc1nc(-c2ccccc2)c(-c2nc3ccccc3c(=O)n2-c2cccc(C)c2)s1
40 | 142 to 143 °C | CCOC(=O)/C=C/c1cn(-c2ccccc2)nc1OCc1ccc(OCc2nc(-c3ccco3)oc2C)cc1
41 | 109 to 110 °C | CCCc1nc2ccccn2c(=O)c1-c1ccc(Cl)cc1
42 | 108 to 110 °C | CCCCOc1ccc2nc(C(=O)O)c(OCc3ccccc3)cc2c1
43 | 96 to 98 °C | O=C1C=C(OCCCCCCO)c2ccccc2C1=O
44 | 59 to 61 °C | O=C(NCCOc1ccc(CC(Oc2ccccc2)C(=O)O)cc1Cl)c1ccc(-c2ccccn2)cc1 (stereo not drawn)
45 | 145 °C | CN(c1ccccc1)c1cc(NCc2ccco2)c(C(=O)O)cc1S(N)(=O)=O
46 | 219 to 220 °C | O=C(O)CNC(=O)CCc1cccc(-c2nc(=O)c3ccccc3s2)n1
47 | 121 to 123 °C | CN(C)CC/C=C1/c2ccccc2COc2ccc(C(=O)O)cc21
48 | 36 to 38 °C | COC(=O)C#CC(=O)c1cccc(C)c1
49 | 217 to 218 °C | CCC(C)N(C(=O)c1ccccc1C(N)=O)c1ccc(Cn2nnn(-c3ccc(C(F)(F)F)cc3)c2=O)cc1C (stereo not drawn)
50 | 136 to 139 °C | Cc1cnn(C(C)(C)C(=O)N(C)C)c1-c1ccccc1
51 | 161 to 162 °C | CCOc1ccc(-c2nc(-c3ccc(O)c(C(=O)O)n3)cs2)cc1OCC

Further lines, the compound ahead of its results:

Row | SMILES | melting point
52 | CSc1nn2c(N)cc(C)nc2c1S(=O)(=O)c1ccc(F)cc1 | > 230 °C
53 | Cc1sc2nc(N)[nH]c(=O)c2c1-c1ccc(F)cc1 | 360 to 362 °C
54 | Cc1cc(-c2[nH]c3ccc(O)cc3c2C)cc(C)c1O | 174 to 176 °C
55 | O=C1CN=C(c2ccccc2Br)c2cc(F)ccc2N1 | 194 to 196 °C
56 | Fc1cccc(F)c1C1=NC(c2ccc(I)cc2)CO1 (stereo not drawn) | 105 to 106 °C
57 | COc1cccc2c1nc(C(F)F)n2-c1nc(N2CCOCC2)nc(N2CCC(NC(=O)CCl)CC2)n1 | 252 to 254 °C
58 | CSc1ncc2c(Cl)ccn2n1 | 107 to 108 °C
59 | CC1Cc2cccc(S(N)(=O)=O)c2OS1(=O)=O (stereo not drawn) | 185 to 186 °C
60 | CCCn1cc2c(C3C(=O)Nc4ccc(Br)cc43)nc(NC3CCNC3)nc2n1 (stereo not drawn) | 315 to 320 °C
61 | Cc1nc2c(-c3ccc(N4CCN(C)CC4)cc3)cnn2c(N)c1-c1cccc(Cl)c1 | 113 to 115 °C
62 | O=C(NCCN1CCOCC1)Nc1nc2ccc(OCc3c(Cl)cccc3Cl)cc2[nH]1 | 256 to 259 °C
63 | CS(=O)c1ccc(-n2cnc3ccc(-c4nnc(SCc5cccc(C(F)(F)F)c5)o4)cc32)cc1 (stereo not drawn) | 88 to 91 °C
64 | O=C1Cc2cc(-n3cccc3)ccc2C(=O)N1 | 212 to 213 °C
65 | Cc1c(C(=O)Cl)ccc(S(C)(=O)=O)c1C1=NOCC1 | 183 to 184 °C
66 | CCc1n[nH]c(CC)c1Cc1cc(C#N)cc(C#N)c1 | 141 to 143 °C
67 | CC(C)(C)[Si](C)(C)Oc1ccc(NC(=O)CBr)cc1 | 112 to 113 °C
68 | CCc1nc2c(cnn2CC)c(NC2CCOCC2)c1CNC(=O)c1cccc(C(=O)NCc2cc(Cl)cc(-c3cccc(C=O)c3)c2)c1 | 123 to 127 °C
69 | CCOC(=O)/C=C/c1ccc(OCCCOC)cc1Oc1ncc(C(F)(F)F)cc1Cl | 86.4 to 86.5 °C
70 | Cc1cc(C(C)(C)C)cc(C)c1[N+](=O)[O-] | 80 to 82 °C
71 | CC(COc1ccc(CC2SC(=O)N(C(c3ccccc3)(c3ccccc3)c3ccccc3)C2=O)cc1)N1CC(COc2cccc(Cl)c2)OC1=O (stereo not drawn) | 74 to 81 °C
72 | O=C(O)C1C2CCC(=O)C21 (stereo not drawn) | 110 to 115 °C
73 | CC(=NC1CCCCC1)NC12CC3CC(CC(C3)C1)C2 | 185 to 187 °C
74 | CC1(Br)Cc2cc(C(=O)O)ccc2C1=O (stereo not drawn) | 203 to 205 °C
75 | CCOc1ccc2[nH]c(C)cc2c1O | 77 to 78 °C

Row | SMILES | melting point
76 | CN1C(=O)C(C(=O)OCCN2CCOCC2)N=C(c2ccccc2)c2cc(Cl)ccc21 (stereo not drawn) | 162 to 166 °C
77 | COc1cc(O)cc(C(F)(F)F)c1 | 75 °C
78 | c1ccc(-c2cc3ncnc(Nc4ccc(NCc5c[nH]c6ccccc56)cc4)c3s2)cc1 | 259 to 261 °C
79 | COC(=O)c1cncn1C1c2ccccc2CC1(C)C (single isomer, unassigned; (-)) | 74 to 76 °C
80 | Nc1cc(O)nc(SCc2cccc(F)c2F)n1 | 218 to 221 °C
81 | Cc1cc2ncnn2nc1OCC(CS(N)(=O)=O)C(C)C (stereo not drawn) | 196 to 197 °C
82 | COC(=O)CCS(=O)(=O)c1cc(C(C)(C)C)c(O)c(C(C)(C)C)c1 | 109 to 111 °C
83 | Cc1ccc(N2C(=O)C3=C(CCCC3)C2=O)c2c1OC(CO)C2 (stereo not drawn) | 177 to 179 °C
84 | Cc1nc(-c2cccc(NC(=O)N3CCc4c(cnc5[nH]ncc45)C3)c2)no1 | > 140 °C
85 | CCOC(=O)CC(=O)c1cc(F)c(S(=O)CC)nc1Nc1ccc(F)cc1F (stereo not drawn) | 115 to 116 °C
86 | Cc1cccc2c(=O)[nH]cc(Br)c12 | 201 to 210 °C
87 | CCCCCCCCCCCCCCCC(CC)C1OC(=O)C(O)=C1O (stereo not drawn) | 114 to 117 °C
88 | Cc1c(N2CCCCC2)ccnc1CSc1nc2cc(N3CCCCC3)c(F)cc2[nH]1 | 161 to 162 °C
89 | CCN1CCCC1CNC(=O)c1c(OC)c(Cl)cc(Br)c1OC (stereo not drawn) | 124 to 125 °C
90 | CCOC(=O)C(C)CNc1c(C#N)cnn1-c1c(F)c(F)c(CC)c(F)c1F (stereo not drawn) | 76 to 78 °C
91 | CCOc1cc(-c2cc(C(F)(F)F)n3ncc(C(=O)Nc4cccc(S(N)(=O)=O)c4)c3n2)ccc1C(F)(F)F | 253 °C
92 | CCOc1cc2c(c3c1OC(C)(C)C3)C(c1cccc(C(=O)NCC(N)=O)c1)=NC(C)(C)C2 | 127 to 128 °C
93 | CCOC(=O)c1c(C)cc2nc(COC(=O)NCCO)n(-c3ccccc3S(=O)(=O)NC)c(=O)c2c1C | 122 to 125 °C
94 | O=[N+]([O-])c1ccc(-c2ccc(Cl)cc2)cc1 | 142 to 145 °C
95 | CC(C)=CC(=O)N[C@H]1CC[C@H](CCN2CCC(c3cccc4c3CCO4)CC2)CC1 | 177 °C
96 | O=C1CCCc2ccc(OCCCCN3CCN(c4cccc5ccc(F)cc45)CC3)nc2N1 | 202 to 203 °C
97 | Nc1cc(F)cc(F)c1NC(=S)Nc1c(Cl)cccc1Cl | 310 to 314 °C
98 | Cc1cccc(N2C(=O)NCc3cccnc32)c1 | 212 to 214 °C
